Experimental data reported in patent publication US8633251B2, “Derivatives of aminoalkanols, method of obtaining of aminoalkanols and their use” (Uniwersytet Jagiellonski, priority 2008, dated 2014).

Experiments:
[1] = tested on: maximal electroshock seizures; assay: Maximum Electroshock Seizure (MES) test, mice; assay type: in vivo; conditions: mice
Description: (§1) In order to define anticonvulsant activity, screening tests were performed, using animal models of seizures. […] Each substance (after dissolving in methylcellulose) was normally tested in doses 30, 100, and 300 mg/kg body weight (b.w.) (mice) or in 30 and 50 mg/kg b.w. (rats) in two possible routes of administration: intraperitoneal (i.p.) or oral (p.o.). Appropriate tests were performed 0.5 and 4 h after administration of the compound. […] (mice) the tests were also performed in doses 10 and 3 mg/kg b.w.
Maximum Electroshock Seizure (MES) test is an electric test, verifying activity towards generalized tonic-clonic seizures (grand mal epilepsy). […] Its procedure consists in administration to an animal a mentioned dose, and after 0.5 or 4 h attaching corneal electrodes (after anesthetic eye-drops: 0.5% tetracaine hydrochloride in 0.9% NaCl) and turning on electric current (60 Hz, 0.2 s, 50 mA (mice) or 150 mA (rats)). […] Normally, in the dose 30 mg/kg b.w. the test is done in 1 mouse after 0.5 or 4 h, in the dose 100 mg/kg b.w.—in 3 mice, and in the dose 300 mg/kg b.w.—in 1 mouse.

neurotoxicity (rotarod) = assay: Neurotoxicity test (TOX), rotarod, mice; assay type: in vivo
Description: as §1
It is performed with use of rotarod test. The animal is placed on a plastic rod (1 inch in diameter), rotating 6 rpm. The rod is placed on a level discouraging the animal to jump off. […] Neurotoxicity is stated if the animal cannot stay on the rod for 1 min. in any of 3 trials. Normally the test is performed in dose 30 mg/kg b.w. in 4 mice (0.5 h) and in 2 mice (4 h), in the dose 100 mg/kg b.w. in 8 mice (0.5 h) and in 4 mice (4 h) and in the dose 300 mg/kg b.w. in 4 mice (0.5 h) and 2 mice (4 h).

[2] = dose 100 mg/kg b.w., time 0.5 h
[3] = mice, dose 100 mg/kg b.w., time 0.5 h
[4] = mice, dose 300 mg/kg b.w., time 0.5 h
[5] = mice, dose 30 mg/kg b.w., 0.5 h
[6] = mice, dose 100 mg/kg b.w., 0.5 h
[7] = mice, dose 300 mg/kg b.w., 0.5 h

SMILES | MES, No. of protected animals/No. of used animals [1, 2] | TOX, No. of animals exhibiting motor impairment/no. of used animals (neurotoxicity (rotarod); mouse, in vivo, 100 mg/kg) | TOX, No. of animals exhibiting motor impairment/no. of used animals (neurotoxicity (rotarod); mouse, in vivo, 300 mg/kg) | MES, No. of protected animals/No. of used animals ([1]; dose 100 mg/kg b.w., 0.5 h) | TOX, No. of animals exhibiting motor impairment/no. of used animals (neurotoxicity (rotarod); [6]) | TOX, No. of animals exhibiting motor impairment/no. of used animals (neurotoxicity (rotarod); [7]) | further results
Cc1cccc(C)c1OCCN(C)C(C)CO.Cl (racemic) [Compound 14, R,S-2N-[(2,6-dimethylphenoxy)ethyl]-2N-methylamino-1-propanol hydrochloride] | 1/1 | 8/8 | 4/4 |  |  |  | MES, No. of protected animals/No. of used animals ([1]; dose 30 mg/kg b.w., time 0.5 h): 1/1; TOX, No. of animals exhibiting motor impairment/no. of used animals (neurotoxicity (rotarod); mouse, in vivo, 30 mg/kg): 1/4
Cc1cccc(C)c1OCCN(C)CC(O)c1ccccc1.Cl (racemic) [Compound 22, R,S-2N-[(2,6-dimethylphenoxy)ethyl]-2N-methylamino-1-phenylethanol hydrochloride] | 2/2 |  |  |  |  |  | MES, No. of protected animals/No. of used animals ([1]; dose 100 mg/kg b.w., time 4 h): 2/2; TOX, No. of animals exhibiting motor impairment/no. of used animals (neurotoxicity (rotarod); [3]): 8/8; TOX, No. of animals exhibiting motor impairment/no. of used animals (neurotoxicity (rotarod); [4]): 4/4
Cc1cccc(OCCCNC(C)CO)c1C (racemic) [Compound 46, R,S-2N-[(2,3-dimethylphenoxy)propyl]amino-1-propanol] | 3/3 | 8/8 | 4/4 |  |  |  | 
CCC(CO)NCCCOc1cccc(C)c1C (racemic) [Compound 48, R,S-2N-[(2,3-dimethylphenoxy)propyl]amino-1-butanol] | 3/3 | 8/8 | 4/4 |  |  |  | 
Cc1cccc(OCCCNCC(O)c2ccccc2)c1C (racemic) [Compound 49, R,S-2N-[(2,3-dimethylphenoxy)propyl]amino-1-phenylethanol] |  |  |  |  |  |  | MES, No. of protected animals/No. of used animals ([1]; dose 300 mg/kg b.w., time 0.5 h): 1/1; TOX, No. of animals exhibiting motor impairment/no. of used animals (neurotoxicity (rotarod); mice, dose 30 mg/kg b.w., time 0.5 h): 1/4; TOX, No. of animals exhibiting motor impairment/no. of used animals (neurotoxicity (rotarod); mice, dose 30 mg/kg b.w., time 4 h): 1/2; TOX, No. of animals exhibiting motor impairment/no. of used animals (neurotoxicity (rotarod); [3]): 6/8; TOX, No. of animals exhibiting motor impairment/no. of used animals (neurotoxicity (rotarod); mice, dose 100 mg/kg b.w., time 4 h): 3/4; TOX, No. of animals exhibiting motor impairment/no. of used animals (neurotoxicity (rotarod); [4]): 4/4; TOX, No. of animals exhibiting motor impairment/no. of used animals (neurotoxicity (rotarod); mice, dose 300 mg/kg b.w., time 4 h): 2/2
Cc1cccc(C)c1OCCCNCC(C)O (racemic) [Compound 50, R,S-1N-[(2,6-dimethylphenoxy)propyl]amino-2-propanol] | 3/3 |  | 4/4 |  |  |  | MES, No. of protected animals/No. of used animals ([1]; dose 30 mg/kg b.w., time 0.5 h): 1/1; TOX, No. of animals exhibiting motor impairment/no. of used animals (neurotoxicity (rotarod); mouse, in vivo, 30 mg/kg): 3/4
Cc1cccc(C)c1OCCCNC(C)CO (racemic) [Compound 51, R,S-2N-[(2,6-dimethylphenoxy)propyl]amino-1-propanol] |  |  | 4/4 | 3/3 |  |  | MES, No. of protected animals/No. of used animals ([1]; dose 30 mg/kg b.w., 0.5 h): 1/1; TOX, No. of animals exhibiting motor impairment/no. of used animals (neurotoxicity (rotarod); mouse, in vivo, 30 mg/kg): 2/4
CCC(CO)NCCCOc1c(C)cccc1C.Cl (racemic) [Compound 55, R,S-2N-[(2,6-dimethylphenoxy)propyl]amino-1-butanol hydrochloride] |  | 8/8 | 4/4 | 3/3 |  |  | MES, No. of protected animals/No. of used animals ([1]; dose 30 mg/kg b.w., 0.5 h): 1/1
Cc1cccc(C)c1OCCCNCC(O)c1ccccc1 (racemic) [Compound 56, R,S-2N-[(2,6-dimethylphenoxy)propyl]amino-1-phenylethanol] |  |  |  | 1/1 | 8/8 | 4/4 | TOX, No. of animals exhibiting motor impairment/no. of used animals (neurotoxicity (rotarod); [5]): 2/4
Cc1cccc(Cl)c1OCCCNC(C)CO (racemic) [Compound 57, R,S-2N-[(2-chlor-6-methylphenoxy)propyl]amino-1-propanol] |  |  |  |  | 8/8 | 4/4 | TOX, No. of animals exhibiting motor impairment/no. of used animals (neurotoxicity (rotarod); [5]): 4/4; TOX, No. of animals exhibiting motor impairment/no. of used animals (neurotoxicity (rotarod); mice, dose 30 mg/kg b.w., 4 h): 1/2
CCC(CO)NCCCOc1c(C)cccc1Cl.Cl (racemic) [Compound 58, R,S-2N-[(2-chlor-6-methylphenoxy)propyl]amino-1-butanol hydrochloride] |  |  |  | 2/3 | 6/8 | 4/4 | TOX, No. of animals exhibiting motor impairment/no. of used animals (neurotoxicity (rotarod); mice, dose 300 mg/kg b.w., 4 h): 1/1
CNC(=O)C(C)NC(=O)COc1c(C)cccc1C (racemic) [Compound 67, D,L-2N-[(2,6-dimethylphenoxy)acetyl]aminopropionic acid N-methylamide] |  |  |  |  | 1/8 | 4/4 | responders at 100 mg/kg ([1]; Mus musculus, dose 100 mg/kg b.w., 0.5 h, read-out: MES, No. of protected animals/No. of used animals (converted)): 66.7%; responders at 300 mg/kg ([1]; Mus musculus, dose 300 mg/kg b.w., 0.5 h, read-out: MES, No. of protected animals/No. of used animals): 100%
